Values joined by “and” are separate entries in the source; they are usually repeats but may differ in a detail not shown here. Equal entries are not always repeated. Numbers after ± are expanded uncertainties.
Details: Liquid

C1CCCC1 [cyclopentane]
Details	viscosity
257.86 K, 100 kPa	0.6878 ± 0.014 mPa·s
257.87 K, 100 kPa	0.6871 ± 0.014 mPa·s
258.01 K, 100 kPa	0.6851 ± 0.014 mPa·s
262.93 K, 100 kPa	0.6393 ± 0.013 mPa·s and 0.6392 ± 0.013 mPa·s
262.93 K, 3100 kPa	0.6574 ± 0.013 mPa·s
262.93 K, 5600 kPa	0.6719 ± 0.013 mPa·s
262.93 K, 7900 kPa	0.6858 ± 0.014 mPa·s
262.93 K, 10100 kPa	0.6987 ± 0.014 mPa·s
262.93 K, 25800 kPa	0.795 ± 0.016 mPa·s
262.93 K, 50800 kPa	0.9583 ± 0.019 mPa·s
262.93 K, 75700 kPa	1.137 ± 0.023 mPa·s
262.93 K, 100700 kPa	1.333 ± 0.027 mPa·s
262.93 K, 125800 kPa	1.546 ± 0.031 mPa·s
262.93 K, 150800 kPa	1.782 ± 0.036 mPa·s
262.93 K, 175800 kPa	2.04 ± 0.041 mPa·s
262.93 K, 200800 kPa	2.322 ± 0.047 mPa·s
262.93 K, 225900 kPa	2.629 ± 0.053 mPa·s
262.93 K, 250900 kPa	2.967 ± 0.059 mPa·s
262.93 K, 275800 kPa	3.333 ± 0.067 mPa·s
262.93 K, 300600 kPa	3.725 ± 0.075 mPa·s
262.99 K, 100 kPa	0.6384 ± 0.013 mPa·s and 0.6388 ± 0.013 mPa·s
262.99 K, 3100 kPa	0.6562 ± 0.013 mPa·s
262.99 K, 5600 kPa	0.6709 ± 0.013 mPa·s
262.99 K, 8100 kPa	0.6858 ± 0.014 mPa·s
262.99 K, 10800 kPa	0.7025 ± 0.014 mPa·s
262.99 K, 25800 kPa	0.7943 ± 0.016 mPa·s
262.99 K, 50800 kPa	0.9576 ± 0.019 mPa·s
262.99 K, 75700 kPa	1.136 ± 0.023 mPa·s
262.99 K, 100500 kPa	1.33 ± 0.027 mPa·s
262.99 K, 125500 kPa	1.543 ± 0.031 mPa·s
262.99 K, 150500 kPa	1.778 ± 0.036 mPa·s
262.99 K, 175500 kPa	2.032 ± 0.041 mPa·s
262.99 K, 200200 kPa	2.307 ± 0.046 mPa·s
263.03 K, 100 kPa	0.6386 ± 0.013 mPa·s and 0.639 ± 0.013 mPa·s
263.03 K, 10600 kPa	0.7005 ± 0.014 mPa·s
263.03 K, 20600 kPa	0.7608 ± 0.015 mPa·s
263.03 K, 30600 kPa	0.8231 ± 0.017 mPa·s
263.03 K, 40500 kPa	0.8873 ± 0.018 mPa·s
263.03 K, 50500 kPa	0.9555 ± 0.019 mPa·s
263.03 K, 60500 kPa	1.024 ± 0.021 mPa·s
263.03 K, 70500 kPa	1.095 ± 0.022 mPa·s
263.03 K, 80600 kPa	1.171 ± 0.024 mPa·s
263.03 K, 90400 kPa	1.246 ± 0.025 mPa·s
263.03 K, 100400 kPa	1.327 ± 0.027 mPa·s
263.03 K, 110500 kPa	1.41 ± 0.028 mPa·s
263.03 K, 120500 kPa	1.496 ± 0.03 mPa·s
263.03 K, 130500 kPa	1.585 ± 0.032 mPa·s
263.03 K, 140400 kPa	1.677 ± 0.034 mPa·s
263.03 K, 150400 kPa	1.774 ± 0.036 mPa·s
263.03 K, 160500 kPa	1.874 ± 0.038 mPa·s
263.03 K, 170500 kPa	1.977 ± 0.04 mPa·s
263.03 K, 180400 kPa	2.083 ± 0.042 mPa·s
263.03 K, 190300 kPa	2.193 ± 0.044 mPa·s
263.03 K, 200200 kPa	2.27 ± 0.046 mPa·s
268.01 K, 100 kPa	0.6016 ± 0.012 mPa·s and 0.5994 ± 0.012 mPa·s
268.01 K, 3000 kPa	0.6145 ± 0.012 mPa·s
268.01 K, 5500 kPa	0.6285 ± 0.013 mPa·s
268.01 K, 8100 kPa	0.6428 ± 0.013 mPa·s
268.01 K, 10600 kPa	0.6569 ± 0.013 mPa·s
268.01 K, 25900 kPa	0.745 ± 0.015 mPa·s
268.01 K, 50900 kPa	0.8969 ± 0.018 mPa·s
268.01 K, 75900 kPa	1.065 ± 0.021 mPa·s
268.01 K, 100700 kPa	1.243 ± 0.025 mPa·s
268.01 K, 125700 kPa	1.44 ± 0.029 mPa·s
268.01 K, 150600 kPa	1.657 ± 0.033 mPa·s
268.01 K, 175700 kPa	1.896 ± 0.038 mPa·s
268.01 K, 200700 kPa	2.151 ± 0.043 mPa·s
268.01 K, 225600 kPa	2.432 ± 0.049 mPa·s
268.01 K, 250800 kPa	2.742 ± 0.055 mPa·s
268.01 K, 275300 kPa	3.073 ± 0.062 mPa·s
268.01 K, 301000 kPa	3.447 ± 0.069 mPa·s
268.01 K, 325300 kPa	3.833 ± 0.077 mPa·s
268.01 K, 351200 kPa	4.283 ± 0.086 mPa·s
268.01 K, 378000 kPa	4.766 ± 0.095 mPa·s
273.15 K, 100 kPa	0.5601 ± 0.011 mPa·s and 0.561 ± 0.011 mPa·s
273.15 K, 3100 kPa	0.5756 ± 0.012 mPa·s
273.15 K, 5600 kPa	0.5886 ± 0.012 mPa·s
273.15 K, 8100 kPa	0.6022 ± 0.012 mPa·s
273.15 K, 10600 kPa	0.6155 ± 0.012 mPa·s
273.15 K, 25900 kPa	0.6979 ± 0.014 mPa·s
273.15 K, 50800 kPa	0.8418 ± 0.017 mPa·s
273.15 K, 75800 kPa	0.9972 ± 0.02 mPa·s
273.15 K, 100700 kPa	1.166 ± 0.023 mPa·s
273.15 K, 125500 kPa	1.349 ± 0.027 mPa·s
273.15 K, 150500 kPa	1.55 ± 0.031 mPa·s
273.15 K, 175500 kPa	1.769 ± 0.035 mPa·s
273.15 K, 200500 kPa	2.006 ± 0.04 mPa·s
273.15 K, 225300 kPa	2.266 ± 0.045 mPa·s
273.15 K, 250600 kPa	2.552 ± 0.051 mPa·s
273.15 K, 275800 kPa	2.864 ± 0.057 mPa·s
273.15 K, 300700 kPa	3.198 ± 0.064 mPa·s
